Test system: SEM cells
Experiment: cell viability relative to DMSO control; higher = less cytotoxic
Details: 48 h
Outline: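 Before seeding, each leukemia line was adapted for at least four passages in each medium. NOMO1 or SEM cells (500 cells/well) and P12-Ichikawa cells (1000 cells/well) went into 1536-well plates at 5 μl, then received library compounds in DMSO by pin dosing across 11 threefold concentrations, 47 μM to 0.79 nM. Readout was CellTiter-Glo One luminescence after 48 h at 37°C, and viability is given as a per-plate percentage of DMSO wells, with cell-free wells as background.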

[1] = HPLM + 10% dialyzed FBS, 0.000781 µM
[2] = HPLM + 10% dialyzed FBS, 0.00234 µM
[3] = HPLM + 10% dialyzed FBS, 0.00702 µM
[4] = HPLM + 10% dialyzed FBS, 0.0211 µM
[5] = HPLM + 10% dialyzed FBS, 0.0632 µM
[6] = HPLM + 10% dialyzed FBS, 0.19 µM
[7] = HPLM + 10% dialyzed FBS, 0.569 µM
[8] = HPLM + 10% dialyzed FBS, 1.71 µM
[9] = HPLM + 10% dialyzed FBS, 5.12 µM
[10] = HPLM + 10% dialyzed FBS, 15.4 µM
[11] = HPLM + 10% dialyzed FBS, 46.1 µM
[12] = RPMI 5 mM glucose + 10% FBS, 0.000781 µM
[13] = RPMI 5 mM glucose + 10% FBS, 0.00234 µM
[14] = RPMI 5 mM glucose + 10% FBS, 0.00702 µM
[15] = RPMI 5 mM glucose + 10% FBS, 0.0211 µM
[16] = RPMI 5 mM glucose + 10% FBS, 0.0632 µM
[17] = RPMI 5 mM glucose + 10% FBS, 0.19 µM
[18] = RPMI 5 mM glucose + 10% FBS, 0.569 µM
[19] = RPMI 5 mM glucose + 10% FBS, 1.71 µM
[20] = RPMI 5 mM glucose + 10% FBS, 5.12 µM
[21] = RPMI 5 mM glucose + 10% FBS, 15.4 µM
[22] = RPMI 5 mM glucose + 10% FBS, 46.1 µM
[23] = RPMI 5 mM glucose + 10% dialyzed FBS, 0.000781 µM
[24] = RPMI 5 mM glucose + 10% dialyzed FBS, 0.00234 µM
[25] = RPMI 5 mM glucose + 10% dialyzed FBS, 0.00702 µM
[26] = RPMI 5 mM glucose + 10% dialyzed FBS, 0.0211 µM
[27] = RPMI 5 mM glucose + 10% dialyzed FBS, 0.0632 µM
[28] = RPMI 5 mM glucose + 10% dialyzed FBS, 0.19 µM
[29] = RPMI 5 mM glucose + 10% dialyzed FBS, 0.569 µM
[30] = RPMI 5 mM glucose + 10% dialyzed FBS, 1.71 µM
[31] = RPMI 5 mM glucose + 10% dialyzed FBS, 5.12 µM
[32] = RPMI 5 mM glucose + 10% dialyzed FBS, 15.4 µM
[33] = RPMI 5 mM glucose + 10% dialyzed FBS, 46.1 µM

SMILES	cell viability [1] [%]	cell viability [2] [%]	cell viability [3] [%]	cell viability [4] [%]	cell viability [5] [%]	cell viability [6] [%]	cell viability [7] [%]	cell viability [8] [%]	cell viability [9] [%]	cell viability [10] [%]	cell viability [11] [%]	cell viability [12] [%]	cell viability [13] [%]	cell viability [14] [%]	cell viability [15] [%]	cell viability [16] [%]	cell viability [17] [%]	cell viability [18] [%]	cell viability [19] [%]	cell viability [20] [%]	cell viability [21] [%]	cell viability [22] [%]	cell viability [23] [%]	cell viability [24] [%]	cell viability [25] [%]	cell viability [26] [%]	cell viability [27] [%]	cell viability [28] [%]	cell viability [29] [%]	cell viability [30] [%]	cell viability [31] [%]	cell viability [32] [%]	cell viability [33] [%]
CCCCCCCCCCCC(CC1OC(=O)C1CCCCCC)OC(=O)C(CC(C)C)NC=O (stereo not given)	86.9	82.3	96.1	99	92.8	98.8	91.4	98	83.2	65.1	10.1	82.2	86.8	96.6	86.6	86.9	91.2	79.9	76.2	48.2	24.9	6.99	86.9	90.5	101	82.1	105	99.4	108	87.6	64.8	38.1	7.62
Cc1ccc(NC(=O)c2ccc(CN3CCN(C)CC3)cc2)cc1Nc1nccc(-c2cccnc2)n1	68.4	92.2	114	101	104	111	96.5	101	99.2	101	93.9	81.2	114	134	134	124	140	115	114	109	110	99.4	72	103	100	94.7	114	107	96.6	112	80.1	100	86.6
CSC1=CC(=CC=C1)NC2=NC3=C(C=N2)/C=C(C(=O)N3C)/C4=C(Cl)C=CC=C4Cl	86.5	90.7	97.7	77.3	86.4	89.7	97	99.4	88.9	77	55.2	120	110	110	53.5	105	97.4	126	120	112	91.4	81.3	96.1	89	91.9	80.1	96	78.3	103	84.9	84.3	69.4	52.4
ClC1=CC=C(CCCOC/2=N/NC(=O)C(=C2NCC3=CN=CC=C3)/Br)C=C1	105	115	112	115	116	115	70.8	30.2	32.7	16	7.78	121	119	130	113	104	114	103	65.1	72.2	26.9	8.69	116	133	123	112	125	126	101	93.8	84.1	49.7	10
COc1nc(-c2ccc3c(c2)OCO3)n(-c2ccc(NC(=O)CSc3ccccc3)cc2)n1	118	97.1	106	112	114	103	117	98	110	98.5	98.9	113	104	117	102	107	108	94.2	95.5	95.8	101	86.7	96.4	108	122	119	119	102	89	105	118	99.7	82.9
Cc1[nH]c(/C=C2\C(=O)Nc3ccc([S+](=O)([O-])N(C)c4cccc(Cl)c4)cc32)c(C)c1C(=O)N1CCN(C)CC1	101	120	113	125	129	108	114	98.3	71.5	38.6	2.39	98.4	111	118	107	96.9	82	106	86.5	54.3	31.3	1.69	–	–	–	–	–	–	–	–	–	–	–
CC#C[C@]1(O)CC[C@H]2[C@@H]/3CCC/4=C/C(=O)CCC4=C3[C@H](C[C@]12C)C5=CC=C(C=C5)N(C)C	76.6	74.8	88.3	80.4	68.9	87.4	84.1	89.9	89.9	86.1	58.7	76	84.6	99.9	102	96	86.3	105	92.7	96.1	73	58.3	87.2	91.6	101	110	92	90.3	96	84	92.8	83	49.5
